Read-outs that look alike come from different tables or passages of the source.
Tested on: HCV (Ib) RNA replication, Huh-ET replicon cells
Assay: Cell-based luciferase reporter HCV (Ib) RNA replication assay
Conditions: Hepatitis C virus, 96 h
[1] = HCV 1b replicon, luciferase, 4 days, read-out: EC50_ib

Text: Cell-Based Luciferase Reporter HCV (Ib) RNA Replication Assay Cell Culture
This cell line allows measurement of HCV RNA replication and translation by measuring luciferase activity. […] The Huh-ET cell line has the same features as those mentioned for Huh-5.2 cell line, except that ET cells are more robust and contain an adaptative mutation in the HCV NS4B gene instead of NS5A. Both cell lines are maintained in cultures at a sub-confluent level (<85%) as the level of replicon RNA is highest in actively proliferating cells. The culture media used for cell passaging consist of DMEM (Gibco BRL Laboratories, Mississauga, ON, Canada) supplemented with 10% foetal bovine serum with 1% penicilin/streptomycin, 1% glutamine, 1% sodium pyruvate, 1% non-essential amino acids, and 180 μg/ml of G418 final concentration. Cells are incubated at 37° C., in an atmosphere of 5% CO2 and passaged twice a week to maintain sub-confluence.
Approximately 3000 viable Huh-ET cells (100 μl) are plated per well in a white opaque 96-well microtiter plate. The cell culture media used for the assay is the same as described above except that it contains no G418 and no phenol red. After an incubation period of 3-4 hours at 37° C. in a 5% CO2 incubator, compounds (100 μl) are added at various concentrations. Cells are then further incubated for 4 days at 37° C. in a 5% CO2 incubator. Thereafter, the culture media is removed and cells are lysed by the addition of 95 μL of the luciferase buffer (luciferin substrate in buffered detergent). Cell lysates are incubated at room temperature and protected from direct light for at least 10 minutes. Plates are read for luciferase counts using a luminometer (Wallac MicroBeta Trilux, Perkin Elmer™, MA, USA).
Curves are fitted to data points using nonlinear regression analysis, and IC50s are interpolated from the resulting curve using GraphPad Prism software, version 2.0 (GraphPad Software Inc., San Diego, Calif., USA).

With `c1cc(-c2ccc3nc([C@H]4CCCN4)cn3c2)ccc1-c1ccc2nc([C@H]3CCCN3)cn2c1` [Compound 3] the EC50 [1] was 0.005 to 5 µM.

Molecule `CCCCN(Cc1nc2cc(C#Cc3ccc4[nH]c(C(=O)NC5CC5)cc4c3)ccc2[nH]1)C(=O)OCc1ccccc1` [Compound 1] has an EC50 [1] of 0.005 to 5 µM.

`CC(C)(C)OC(=O)N1CCC[C@@H]1c1cn2cc(-c3ccc(-c4ccc5nc([C@H]6CCCN6C(=O)OC(C)(C)C)cn5c4)cc3)ccc2n1` [Compound 2] was tested, and the EC50 [1] was 0.005 to 5 µM.

For `COC(=O)N[C@H](C(=O)N1C[C@@H](C)CC1c1nc2cc(-c3ccc(-c4ccc5nc(C6C[C@H](C)CN6C(=O)[C@@H](NC(=O)OC)C(C)C)oc5c4)cc3)ccc2[nH]1)C(C)C` (stereo partly shown) [Compound 47], the EC50 (read-out: EC50_ib (uM)) was under 0.005 µM.

— patent US20130085150A1, “ANALOGUES FOR THE TREATMENT OR PREVENTION OF FLAVIVIRUS INFECTIONS” (Vertex Pharmaceuticals Incorporated, priority 2010, published 2013)
